Tested on: 10 mm tibial defect model in rabbits
Assay: 10 mm tibial defect model in rabbits with calcium sulphate (Osteoset) cylinder; pQCT scans and radiographs
Format: in vivo, NZW rabbit
Settings: for BMC / BMD / Polar Moment / Total Bone Area: 6 weeks; for Total Bone Area: CT slice at centre of defect
Text: The following example outlines the process by which the effects of bisphosphonates on potentiating new bone formation in a graft may be observed. In this regard, the effects on bone mineralisation and the mechanical properties are observed in a 10 mm tibial defect model in rabbits.
The present experiment uses an 8-week-old NZW rabbit model. A 10 mm gap is surgically removed from the tibiae of the rabbits. The bones are held with a M-100 external fixator.
Cylinders of calcium sulphate (Osteoset) were prepared on the day of surgery. Moulds were prepared using a combination of 1.0 ml and 3.0 ml syringes, and the Osteoset poured into the moulds in a sterile environment. The cylinders were removed from the moulds at 12 minutes, and allowed to dry in air for 90 minutes, followed by final drying in a microwave for 30 seconds. Once dry, the cylinders were formed into a standard dimension of 10 mm length, with an external diameter of 9 mm and with a 3 mm diameter internal core. The cylinders weighed 0.80.9 g. The cylinders were stored in sterile environment until required.
At the commencement of the operative procedure 0.15 ml of saline, or 0.15 ml of zoledronic acid (0.05 mg/kg) was adsorbed onto a calcium sulphate cylinder, which was then replaced into the sterile container.
The operative field was prepared by shaving with clippers, disinfected with povidone iodine 4% w/v in 70% alcohol. The right tibia was exposed sub-periosteally along its length and four 3 mm Orthofix pins inserted. An M-100 monolateral external fixator (Orthofix S.L.R) was applied. A 10 mm piece of mid-diaphyseal tibia was removed using an oscillating saw, along with the central 10 mm of periosteum. A calcium sulphate cylinder was then placed in the defect, and held by slight compression of the external fixator.
The animals were randomised such that at the time of surgery, 24 animals had Osteoset cylinders with saline adsorbed inserted, 12 of whom were given saline-only infusions and 12 of whom were given 0.1 mg/kg zoledronic acid infusion at the time of surgery and again on day 14. A further 12 animals had Osteoset cylinders with 0.15 ml of zoledronic acid (0.05 mg/kg) adsorbed inserted, and given a saline only infusion. Note that in the third leg the zoledronic acid was administered to the site via the cylinder, and not directly.
Animals were culled at 28 days (18 animals) and at 42 days (18 animals) with IV pentobarbitone 150 mg/kg.
[…]. CT scans were performed at 28 days (18 animals) and at 42 days (18 animals) using a Stratec XCT Research SA pQCT scanner.

[1] = IV ZA 0.1 mg/kg at surgery and day 14
[2] = Local ZA 0.05 mg/kg adsorbed on cylinder

O=P(O)(O)C(O)(Cn1ccnc1)P(=O)(O)O [ZA, 1-hydroxy-2-[(1H-imidazol-1-yl)ethylidine]bisphosphonic acid]
Bone area increase over controls (4 weeks, IV ZA group): 131% | Polar moment of inertia increase over controls (4 weeks, IV ZA group): 104% | Bone area increase over controls (4 weeks, Local ZA group): 216% | Polar moment of inertia increase over controls (4 weeks, Local ZA group): 316% | BMC [1]: 45.9 (20.7) mg/mm | BMD [1]: 784.6 (97.7) mg/cm^3 | Polar Moment [1]: 442.8 (585.2) mm^4 | Total Bone Area (IV ZA 0.1 mg/kg infusion at surgery and day 14): 58.0 (23.2) mm^2 | Total Bone Area (Local ZA 0.05 mg/kg adsorbed on calcium sulphate cylinder): 66.6 (7.9) mm^2 | BMC [2]: 45.0 (5.4) mg/mm | BMD [2]: 676.2 (49.3) mg/cm^3 | Polar Moment [2]: 1343.1 (254.7) mm^4 | Polar moment of inertia increase over controls (six weeks, Local ZA group): 40% | Cross sectional area increase over controls (six weeks, local bisphosphonate group, not significant): 20%

From US20040157798A1, “Drug for use in bone grafting” (priority 2001, published 2004)
